We go through 85 compounds from a melting point compilation (Tetko et al.; mined from patent text by program, amines drawn as free bases though some values may be those of a salt).

The term melting point denotes the temperature of the solid-liquid transition.

`Cc1c(NC(=O)c2ccc(-c3ccccc3)c(F)c2)ccc2cc(CN3CCCCCC3)cnc12`: the melting point lay in the range of 129 to 130 °C.
Next, `O=C(CNc1ccc2[nH]ncc2c1)N1CCC(Cc2ccc(F)cc2)CC1`: 113 to 114 °C; `COC(=O)c1cc(OC(=S)N(C)C)c2cc(-c3ccc(OC)c(C45CC6CC(CC(C6)C4)C5)c3)ccc2c1C`: 137 to 138 °C; `CCOc1ccc(C(=O)NCc2ccc3c(c2)C(=O)N(C2CCC(=O)NC2=O)C3=O)nn1` (stereo not given): 238 to 240 °C.
Next, `CCCc1c(OCCCOc2ccc(C(=O)C(=O)OCC)cc2)ccc(C(=O)OC)c1O`: 62 to 64 °C; `Cc1cc(-c2nnc3c4ccccc4c(OCc4cncn4C)nn23)no1`: 236 to 238 °C.
Compound `CCc1ccc(-c2ccc3c(c2)C=C(C(=O)Nc2ccc(CN(C)C4CCOCC4)cc2)CCN3C)cc1` returned a melting point of 164 to 165 °C.
The compound `O=C1CC(=O)NC(c2ccc(Cl)cc2)=N1` registered a melting point of 120 to 121 °C.
As for `C=C(Br)Cc1c(O)ccc2c(C)cc(=O)oc12`, the figure is 201 to 202 °C; as for `COc1cc(Nc2nccc(-c3cccnc3)n2)ccc1-n1cnc(C)c1`, 204 to 206 °C; as for `CSc1cc2c(cc1C(F)(F)F)N(C(=O)Nc1ccc(C(=O)Nc3cccnc3)cc1)CC2`, > 200 °C.
Turning to `O=C(c1ccc(Cl)cc1)C(Oc1cccc(Cl)n1)n1cncn1` (stereo not given), the melting point turned out to be 162 °C.
Consider `CC(C)(C)c1cc(C(=O)N2CC(O)C2)cc(C(C)(C)C)c1O`, for which the melting point is 185 to 189 °C.
As for `CN1CCN(C(=O)c2ccc(-n3nc(-c4ccccc4O)nc3-c3ccccc3O)cc2)CC1`, the figure is 226 to 229 °C.
As for `CCN1c2ncc(CCc3ccncc3)cc2C(=O)Nc2c(C)ccnc21`, the figure is 176 to 178 °C; as for `Cc1cc(SCc2ccnc3c2nc(-c2ccc(C(F)(F)F)cc2)n3C)ccc1CCC(=O)O`, 89 to 91 °C; as for `CC(=O)N(C(=O)c1ccccc1O)C(C)C(=O)O` (racemic), 118 to 120 °C.
Next, `COc1ccc(Cn2c3c(c(C#N)c2NC2=CC(=O)CCC2)CCCC3)cc1`: 143 to 145 °C; `Cc1cc(-c2ncn(Cc3ccc(F)cc3)n2)sc1C(=O)NCc1cccnc1`: 154 to 155 °C.
For `O=C(NC1CCCCC1)NS(=O)(=O)c1ccc(CCNC(=O)N2CCCCC2=O)cc1`, the melting point lay within 197 to 199 °C.
With `COc1cc(C(S)CS)cc(OC)c1OC` (stereo not given), the melting point was 72.5 to 73.5 °C.
As for `N#Cc1ccc(Nc2nc(Cc3c(Cl)cccc3Cl)cc(NCCN3CCCC3)n2)cc1`, the figure is 80 to 85 °C; as for `CCCc1c(OCCOCCOc2ccc3ccc(OCC(=O)O)cc3c2C(C)=O)ccc(C(C)=O)c1O`, 121 to 122 °C; as for `CCOC(=O)CNc1ccccc1C(N)=O`, 147 to 148 °C.
Next, `COc1ccc2c(n1)C(=O)c1nccc3c1c-2nc1ccccc13`: > 260 °C.
Turning to `N#Cc1ccc(N2CCN(Cc3cnc4c(c3)NC(=O)[C@@H]3CCCN43)CC2)c(Cl)c1`, the melting point lay within 213 to 215 °C.
Next, `Cc1nc2nc(SCc3ccccc3)nn2c(Cl)c1Cl`: 103 to 105 °C.
Turning to `CC(=O)C(=Cc1ccc(Cl)c(Cl)c1)C(C)=O`, the melting point was determined as 73 °C.
Next, `CC(C)C(=O)c1cn(Cc2c(F)cccc2F)c2sc(-c3ccc([N+](=O)[O-])cc3)c(CN(C)Cc3ccccc3)c2c1=O`: 158 to 162 °C; `Cc1cccc(CCC(C)O)c1NC(=O)CC1c2ccccc2Oc2ccccc21` (stereo not given): 167 to 168 °C; `CC1(C)Oc2ccc(C#N)cc2[C@@H](n2cnccc2=O)[C@@H]1O` (relative stereo): 202 to 203 °C.
Next, `CC(C)Oc1c(Br)csc1C(=O)Nc1nnn[nH]1`: 193 to 194 °C; `CNC(=O)Cc1c(C(=O)c2cc(C)ccn2)[nH]c2cc(Cl)ccc12`: 231 °C.
Next, `O=[N+]([O-])c1ccc(Oc2ccc(Oc3ccc(Oc4ccc(Oc5ccc([N+](=O)[O-])cc5)cc4)cc3)cc2)cc1`: 142 to 143 °C; `C=CC(=O)N1c2ccccc2CC1C(=O)O` (stereo not given): 158 to 160 °C.
In turn, `Cc1cnc2[nH]c3ccccc3c2c1` gave a melting point of 270 °C.
`O=c1[nH]ncc2[nH]c(-c3ccc(OC(F)F)c(OC4CCC4)c3)c(-c3ccccc3)c12` gave a melting point of 280 to 284 °C.
As for `CCCNC(=O)C(C)=Cc1ccc2c(c1)c(Cc1ccc(C(=O)NS(=O)(=O)c3ccccc3C)cc1OC)cn2CC(=O)N(C)C`, the figure is 230 to 231 °C; as for `COc1ccc(-c2cnn(-c3cccc(C)n3)c(=O)c2)cc1`, 167 to 168 °C.
`COc1ccc(OC)c(P(=O)(C(=O)c2c(C)cc(C)cc2C)C(=O)c2c(C)cc(C)cc2C)c1` displayed a melting point of 161 °C.
As to `Cc1cc(=O)n(Cc2ccccc2)c2cc(OCc3nnn[nH]3)cc(OCc3nnn[nH]3)c12`, the melting point was 246 to 249 °C.
As for `Oc1ccc2c(c1)CN(Cc1ccc(Cl)cc1)CC2`, the figure is 177 to 178 °C; as for `CCC1(CO)COC(C(C)(C)Oc2ccc(Cl)cc2)=N1` (stereo not given), 94 to 95 °C.
Next, `CC1Oc2cc(C3=NNC(=O)CC3)ccc2NC1=O` (stereo not given): 294 to 295 °C; `O=C(C1CCCC1)[C@H]1CCn2c(cc3ccccc32)C1`: 69 °C; `CC(=O)NC(Cl)CCC(=O)c1ccccc1` (stereo not given): 157 to 163 °C.
In the case of `CCc1cc(C(=O)c2ccccc2Cl)c(-n2c(C)nnc2CNC(=O)c2ccc(Cl)c(Cl)c2)s1`, the melting point lay in the range of 151 to 152 °C.
Next, `Cn1cc(Oc2ccc(Cl)cc2)c(=O)c(-c2cccc(C(F)(F)F)c2)c1`: 90 to 91 °C.
Consider `COc1ccc2c(c1)c(C1CCN(CCOc3ccccc3C(=O)O)CC1)cn2Cc1cccs1`, for which the melting point is 150 to 151 °C.
Next, `O=C(CN1CC(c2ccc(Cl)cc2)CC1=O)N1CCNCC1` (stereo not given): 148 to 150 °C; `CC(C)(C)C(=O)OCN1C(=O)NC2(C1=O)C(=O)N(Cc1ccc(Cl)c(Cl)c1)c1ccccc12` (stereo not given): 209 to 211 °C.
Compound `COCc1nc2c(N)nc3cc(CCC(=O)N(C)C)ccc3c2n1CC(C)(C)O` registered a melting point of 142 to 145 °C.
Next, `CCc1nc(C)cn1C(=O)c1c(Cl)cccc1[N+](=O)[O-]`: 116 to 118 °C; `O=Cc1c[nH]c2c(F)cccc12`: 203 to 205 °C.
As for `C(=C\C1CCCCC1)/c1nc(COc2ccc(CCCn3ccnc3)cc2)co1`, the figure is 62 to 63 °C.
Next, `COc1ccc(Cn2c3c(c4cc(OC)c(OC)cc4c2=O)C(=O)c2cc4c(cc2-3)OCO4)cc1`: 360 to 364 °C; `CNCc1cn(-c2ccccc2)nc1OCc1ccc(OCc2nc(-c3ccco3)oc2C)c(OC)c1`: 103 to 104 °C.
Consider `Cc1ccc(-c2c(NS(=O)(=O)c3ccc(C(C)(C)COc4ncc(Br)cn4)cc3)ncnc2OCCOc2ncc(Br)cn2)cc1`, for which the melting point was in the range of 156 to 158 °C.
As for `O=c1c2ccccc2sc2c(O)ccc(Cl)c12`, the figure is 260 to 265 °C; as for `N#Cc1cnc2sc(-c3ccc(CN)cc3)cc2c1Nc1ccc2[nH]ccc2c1`, > 260 °C.
Next, `Cc1c(NC(=O)CC(C)(C)C)c(C)c2c(C)coc2c1Cc1ccc(C(C)C)cc1`: 171 to 172 °C; `O=C(O)CNC(=O)NCCCCC1CCSS1` (stereo not given): 95 to 96 °C; `CNC(=O)c1cc(-c2ccc(OC)cc2)nn(CC=Cc2ccc(Cl)cc2)c1=O`: 184 to 185 °C.
Take `Cc1c(-c2ccccc2)n[nH]c1OCCN1CCOCC1`: the melting point amounted to 100 °C.
As for `Clc1ncc(-c2ccsc2)cn1`, the figure is 154 to 157 °C; as for `COC(=O)CCCOc1cc([N+](=O)[O-])c(C=O)cc1OC`, 75 °C; as for `CCOC(=O)C1=C(C(F)(F)F)Nc2n[nH]cc2C1c1ccc(C(=O)OCC)cc1` (stereo not given), 157 to 160 °C.
Next, `COc1ccc(-c2[nH]cc(C(C)=O)c2N)cc1`: 198 to 200 °C.
As for `Cc1ccc(C)n1-c1cc(Br)c2ccc3[nH]c(=O)c(=O)[nH]c3c2c1`, the figure is > 270 °C.
As for `CCOC(=O)C(C(=O)OCC)N1CS(=O)c2c(C)cc([N+](=O)[O-])cc21` (stereo not given), the melting point was determined as 97 °C.
Regarding `OCCCc1ccc(OCCN2CCOCC2)cc1Oc1ncc(C(F)(F)F)cc1Cl`, the melting point lay within 69.2 to 70.4 °C.
As for `CCOC(=O)COc1cc(S(C)(=O)=O)ccc1C(=O)NCc1ccc(Br)cc1F`, the figure is 140 to 143 °C; as for `Nc1cc(O)ccc1F`, 137 to 139 °C.
Next, `Oc1cc(O)c2c(c1)Oc1cc(Br)ccc1CC2`: 178 to 180 °C; `O=C(O)C(=NOCc1ccc(Cl)cc1Cl)c1csc(NC(=O)C(F)(F)F)n1`: 170 to 176 °C.
As for `CCCc1nc(NCc2ccccn2)nc(Nc2cccc(C(C)C)c2)n1`, the figure is 103 to 104 °C; as for `O=C(O)CCc1cc(OCCCc2cn(-c3ccc(C(F)(F)F)cn3)nc2C2CCCCC2)nn1C1CCCCC1`, 190 to 191 °C; as for `COC=C(C(=O)OC)c1ccccc1CC(=O)c1ccccc1Cl`, 70 to 75 °C.
Compound `Cc1nc(N)sc1S(=O)(=O)N1CCN(C)CC1` displayed a melting point of 188 °C.
Next, `CC(=O)NC1(c2ccccc2)CCN(CC[C@@H](c2ccc(Cl)c(Cl)c2)[C@@H](O)c2cnnn2-c2ccccc2)CC1` (racemic): 125 to 128 °C; `Nc1nc(-c2ccc([N+](=O)[O-])cc2)c[nH]1`: 235 to 240 °C.
As for `COC(=O)C(N)Cc1ccc(OCc2nc3ccc(OC)cc3n2C)cc1` (stereo not given), the figure is 108 to 111 °C; as for `COc1cc(OC)c(-c2cc3ccccc3n2C)cc1C=CC(=O)c1ccc(S(=O)(=O)NCc2cccnc2)cc1`, 202 to 203 °C; as for `CC(C)Cn1cc(F)c(NCc2ccccc2F)nc1=O`, 118 to 119 °C.
Next, `CCOC(=O)C1CN(C(=O)C2=Cc3cc(OC)c(OC)cc3CCC2)CCN1` (stereo not given): 105 to 106 °C.
